The text below walks through data of patent US5151413A (American Home Products Corporation, priority 1991, dated 1992).

Values after ≈ are worked out from the molar mass of the structure shown. Where two headings read alike, the source gives them in different places.

For assay [1], the system named is thymocyte proliferation (cells from the thymus of normal BALB/c mice). The assay is described as follows: comitogen-induced thymocyte proliferation procedure (LAF). In kind it is cell-based. Particulars: read-out: LAF IC50. On the procedure:
Immunosuppressive activity was evaluated in an in vitro standard pharmacological test procedure to measure lymphocyte proliferation (LAF) and in an in vivo procedure in which the survival time of a pinch skin graft was evaluated.
The comitogen-induced thymocyte proliferation procedure (LAF) was used as an in vitro measure of the immunosuppressive effects of representative compounds. Briefly, cells from the thymus of normal BALB/c mice are cultured for 72 hours with PHA and IL-1 and pulsed with tritiated thymidine during the last six hours. […] Cells are harvested and incorporated; radioactivity is determined. Inhibition of lymphoproliferation is assessed in percent change in counts per minute from non-drug treated controls. […] [formula]

The test system of assay [2] is pinch skin grafts from male DBA/2 donors transplanted to male BALB/c recipients. The assay is described as follows: survival time of pinch skin grafts (in vivo). The arrangement: species or system BALB/c mice. Particulars: intraperitoneal; DBA/2 donors to BALB/c recipients. On the procedure:
The recipients are treated with either varying concentrations of cyclosporin A as test control or the test compound, intraperitoneally. Untreated recipients serve as rejection control. The graft is monitored daily and observations are recorded until the graft becomes dry and forms a blackened scab. This is considered as the rejection day.

Assay [3] relates to Candida albicans ATCC 38246. Briefly: Anti-Candida activity, plate test procedure, strain ATCC 38246. Particulars: ATCC38246, read-out: Anti-Candida Activity, Minimal Inhibitory Concentration (MIC). It is filed as cell-based. On the procedure:
(§1) Antifungal activity of the compounds of this invention was measured against 5 strains of Candida albicans using a plate test procedure for measurement of inhibition. The following represents the typical procedure used. Compound to be tested was placed on sterile dried 1/4" plate disks, and allowed to dry. Agar plates were seeded with fungi and allowed to solidify. The impregnated disks were placed on the seeded Agar surface and incubated for the time required for the particular culture. Results are expressed in MIC (μg/ml) to inhibit growth.

Assay [4] deals with Candida albicans ATCC 38247. Briefly: Anti-Candida activity, plate test procedure, strain ATCC 38247. In kind it is cell-based. Particulars: ATCC38247, read-out: Anti-Candida Activity, Minimal Inhibitory Concentration (MIC). On the procedure: as §1
Assay [5] relates to Candida albicans ATCC 10231. Briefly: Anti-Candida activity, plate test procedure, strain ATCC 10231. It is filed as cell-based. Particulars: ATCC10231, read-out: Anti-Candida Activity, Minimal Inhibitory Concentration (MIC). On the procedure: as §1
The next assay has as its system Candida albicans 3669. The assay is described as follows: Anti-Candida activity, plate test procedure, strain 3669. Particulars: read-out: Anti-Candida Activity, Minimal Inhibitory Concentration (MIC). It is filed as cell-based. On the procedure:
as §1

Assay [6] relates to Candida albicans ATCC 38248. The assay is described as follows: Anti-Candida activity, plate test procedure, strain ATCC 38248. It is filed as cell-based. Particulars: ATCC38248, read-out: Anti-Candida Activity, Minimal Inhibitory Concentration (MIC). On the procedure:
as §1

For a further assay, the system named is immune response. Particulars: cited from earlier work.
The subject of a further assay is Candida albicans. Particulars: especially against Candida albicans; cited from earlier work.
[7] abbreviates: Mus musculus, Thymocyte, thymocytes cultured 72 hours with PHA and IL-1, tritiated thymidine last six hours.

What is called IC50 is the concentration that gives 50% inhibition. For “31-[O-[2-(trimethylsilyl)ethoxylmethyl]rapamycin [Example 3]”, the IC50 in [1] (thymocytes cultured 72 hours with PHA and IL-1, tritiated thymidine last six hours) is 17.2 nM.
For the compound `CO[C@H]1C[C@@H]2CC[C@@H](C)[C@@](O)(O2)C(=O)C(=O)N2CCCC[C@H]2C(=O)O[C@H]([C@H](C)C[C@@H]2CC[C@@H](O)[C@H](OC)C2)CC(=O)[C@H](C)/C=C(\C)[C@@H](OC(C)(C)OC)[C@@H](OC)C(=O)[C@H](C)C[C@H](C)/C=C/C=C/C=C/1C` [Example 1, 31-[O-(1-Methoxy-1-methyl)ethyl]rapamycin], in [2], the “Skin Graft, mean survival days” value came to 10.7 days. In addition, the MIC in [3] came out at 0.4 µg/mL (≈ 0.406 µM); in assay [4], 0.025 µg/mL (≈ 0.0253 µM); in [5], 0.025 µg/mL (≈ 0.0253 µM); with Candida albicans 3669 it was 0.4 µg/mL (≈ 0.406 µM); in assay [6] it was 0.1 µg/mL (≈ 0.101 µM). Further, the IC50 in assay [1] (setting [7]) amounted to 3.2 nM.
As for `CO[C@H]1C[C@@H]2CC[C@@H](C)[C@@](O)(O2)C(=O)C(=O)N2CCCC[C@H]2C(=O)O[C@H]([C@H](C)C[C@@H]2CC[C@@H](OC(C)(C)OC)[C@H](OC)C2)CC(=O)[C@H](C)/C=C(\C)[C@@H](O)[C@@H](OC)C(=O)[C@H](C)C[C@H](C)/C=C/C=C/C=C/1C` [Example 2, 42-[O-(1-methoxy-1-methyl)ethyl]rapamycin], the MIC amounted to 0.4 µg/mL (≈ 0.406 µM) in [3]; 0.025 µg/mL (≈ 0.0253 µM) in assay [4]; 0.025 µg/mL (≈ 0.0253 µM) in [5]; 0.2 µg/mL (≈ 0.203 µM) in the assay with Candida albicans 3669; 0.1 µg/mL (≈ 0.101 µM) in assay [6]. Besides, the IC50 in [1] (setting [7]) was 8.3 nM.
Turning to `CO[C@H]1C[C@@H]2CC[C@@H](C)[C@@](O)(O2)C(=O)C(=O)N2CCCC[C@H]2C(=O)O[C@H]([C@H](C)C[C@@H]2CC[C@@H](O)[C@H](OC)C2)CC(=O)[C@H](C)/C=C(\C)[C@@H](O)[C@@H](OC)C(=O)[C@H](C)C[C@H](C)/C=C/C=C/C=C/1C` [Rapamycin, reference compound], the MIC came to 0.25 µg/mL (≈ 0.273 µM) in [3]; 0.03 µg/mL (≈ 0.0328 µM) in assay [4]; 0.03 µg/mL (≈ 0.0328 µM) in assay [5]; 0.25 µg/mL (≈ 0.273 µM) in the assay with Candida albicans 3669; 0.006 µg/mL (≈ 0.00656 µM) in [6]. The “inhibition of the immune response (in words)” value with immune response is “inhibit the immune response”. In addition, the “antifungal activity (in words)” value in the assay on Candida albicans is “profound antifungal activity”. Besides, in assay [1] (Mus musculus, Thymocyte), the IC50 is 3.3 to 5.8 nM.
